{
  "source": "patent US20060134119A1",
  "about": "“Drugs containing galectin 9” (priority 2003, published 2006)",
  "key": {"[1]": {"test_system": "Jurkat", "assay": "Apoptosis analysis by PI method in Jurkat cells", "assay_type": "cell-based", "experimental": "(§1) MOLT-4 (T cell), Jurkat (T cell), BALL-1 (B cell), THP-1 (acute monocytic leukemia derived cell), and HL60 (acute promyelotic leukemia derived cell) cells were obtained from American Type Culture Collection (ATCC). All the cell lines were maintained in an RPMI-1640 medium (Sigma, St. Louis, US) supplemented with 10% FCS in 5% Co2 at 37° C. Lactose (30 mM) was added to the culture medium to inhibit Gal-9 activity. The same concentration of sucrose was used as a control.\n(§2) Cells that underwent apoptosis induction were centrifuged at 4° C. for 5 min at 1,000 rpm, and the cell pellet was resuspended in PBS (300 μL), and adjusted to a final concentration of 70% by gradually adding 100% cold ethanol (700 μL) to the suspended cells with vortexing. […] Stained cells were analyzed by flow cytometry (Sandstrom, K. et al., J Immunol Methods, 240: 55 (2000) and Zhang L. et al., Cancer Lett, 142: 129 (1999)) after removing aggregated cells through a nylon mesh and increasing the cell volume with PBS. […]\n(§3) Apoptotic activity was measured by the PI method. […] Subsequently, incubation with PI leads to a reduction in the fluorescence intensity of apoptotic cells. Apoptosis was examined by the percentage of the cells wherein their fluorescence intensity was reduced. […]"}, "[2]": {"test_system": "BALL-1", "assay": "Apoptosis analysis by PI method in BALL-1 cells", "assay_type": "cell-based", "experimental": "as §1, §2, §3"}, "[3]": {"test_system": "MM-RU", "assay": "Induction of cell aggregation in MM-RU", "assay_type": "cell-based, human", "conditions": "for aggregation: FIG. 14", "experimental": "Recombinant galectin-9 prepared via gene transfer into E. coli was added to MM-RU exogenously, and the efficacy of galectin-9 was then examined. As a result, galectin-9 induced aggregation of MM-RU at the concentration of 0.1 μM or higher. In addition, the galectin-9 efficacy was concentration-dependent, and significant between 0.3-1.0 μM."}, "[4]": {"test_system": "KATO-III", "assay": "Apoptosis analysis by PI method in KATO-III cells", "assay_type": "cell-based", "conditions": "incubation with galectin-9 at least 48 hr or more", "experimental": "(§4) Apoptotic activity was measured by the PI method. When cells are incubated with galectin-9, washed, then subjected to alcohol-fixation, and fragmented DNAs flow out of the cell. Subsequently, incubation with PI leads to a reduction in the fluorescence intensity of apoptotic cells. Apoptosis was examined by the percentage of the cells wherein their fluorescence intensity was reduced. […] This induction was at the same level as H2O2 (hydrogen peroxide solution) that was used as a positive control. In addition, the same results were obtained by another method for examining apoptosis, TUNEL assay."}, "[5]": {"test_system": "MOLT-4 cells", "assay": "Apoptosis analysis with Annexin V-PI in MOLT-4 cells", "assay_type": "cell-based, human", "conditions": "1 μM Gal-9; FIG. 1B; control 13.2%", "experimental": "MEBCYTO (registered trademark) Apoptosis kit (MBL, Nagoya, Japan) was used for apoptosis analysis with Annexin V-PI. Experiments were carried out according to the manufacturer's instruction as follows. Briefly, cells that underwent apoptosis induction (2×10^5 cells/sample) were washed with PBS, and resuspended in the binding buffer. After adding Annexin V-FITC and 5 μL of PI (final concentration 5 μg/mL) in the kit to the cell suspension, cells were incubated for 15 min at room temperature in the dark. Analysis was conducted using flow cytometry (EPICS XL-MCL, CouHer, Miami, Fla., US)."}, "[6]": {"test_system": "malignant melanoma cell line MM-RU", "assay": "Apoptosis analysis by PI method in malignant melanoma cell line MM-RU", "assay_type": "cell-based, human", "conditions": "incubated with galectin-9 for 72 hr, FIG. 10", "experimental": "as §4"}, "[7]": {"test_system": "MOLT-4 cells", "assay": "Apoptosis analysis by PI method in MOLT-4 cells", "assay_type": "cell-based, human", "experimental": "as §1\nCells that underwent apoptosis induction were centrifuged at 4° C. for 5 min at 1,000 rpm, and the cell pellet was resuspended in PBS (300 μL), and adjusted to a final concentration of 70% by gradually adding 100% cold ethanol (700 μL) to the suspended cells with vortexing. Cells were fixed by incubation at 4° C. for 30 min, and centrifuged at 4° C. for 5 min at 1,000 rpm after adding PBS (1 mL), and the cell pellet was resuspended in PBS (440 μL). Cells were incubated with ribonuclease A (10 μL; the final concentration 50 μg/mL, Sigma, St. Louis, Mo., US) at 37° C. for 30 min, and with 2.5 mg/mL propidium iodide (4 μL; the final concentration of PI 20 μg/mL, Sigma) at 4° C. for 10 min in the dark. Stained cells were analyzed by flow cytometry (Sandstrom, K. et al., J Immunol Methods, 240: 55 (2000) and Zhang L. et al., Cancer Lett, 142: 129 (1999)) after removing aggregated cells through a nylon mesh and increasing the cell volume with PBS.\n(3) Cultured Cell Lines Were Incubated With rGal-9 for the Appropriate Length of Time, 24 hr for Instance. Apoptosis Analysis was Conducted by the Above-Described PI Method (1).\nas §4"}, "[8]": {"test_system": "MOLT-4 cells", "assay": "Ca2+ influx, Fluo-3 assay by flow cytometry", "assay_type": "cell-based, human", "conditions": "Fluo-3 assay, FIG. 8", "experimental": "Cells (approx. 10^6 to 10^7 cells/mL) in the culture medium (10% FCS, RPMI-1640 containing 10 mM HEPES, pH 7.2) were incubated with fluo-3 AM (final concentration 10 μM, Dojindo, Kumamoto, Japan), an intracellular calcium indicator, at 37° C. for 30 min (Sharp, B. M. et al., Proc. Natl. Acad. Sci. USA, 93: 8294 (1996)). Then the cells were washed and resuspended in the culture medium (final concentration, approx. 2×10^5 cells/mL per sample). Intracellular calcium level was measured by flow cytometry. The resting cells were stimulated at 1 min after their fluorescence intensities were measured.\nNext, sequential measurement was restarted until different stimuli were applied. In lactose inhibition assay, cells were stimulated in the presence of 30 mM lactose. Sucrose (30 mM) was used as a control (Sano, H. et al., J. Imnunol., 165: 2156 (2000)). A23187 (calcium ionophore, final concentration 5 ng/mL, Wako, Osaka, Japan) was used as a positive control."}, "[9]": {"test_system": "eosinophils", "assay": "Effect of Gal-9 on induced apoptosis of eosinophils", "assay_type": "cell-based"}, "[10]": {"conditions": "recombinant galectin-9 added exogenously"}},
  "data": [
    {"substance": "Galectin-9: Recombinant human galectin-9 expressed in E. coli and purified on lactose-agarose", "values": [
      {"measurement": "apoptosis induction, Gal9 (+)", "setting": "[1]; Jurkat, incubation with galectin-9 at least 48 hr or more", "result": 66.6},
      {"measurement": "apoptosis induction", "setting": "[1]; rGal-9 1 μM, 24 hr, FIG. 3", "result": "induced"},
      {"measurement": "apoptosis induction, Gal9 (+)", "setting": "[2]; BALL-1, incubation with galectin-9 at least 48 hr or more", "result": 26.0},
      {"measurement": "apoptosis induction", "setting": "[2]; rGal-9 1 μM, 24 hr, FIG. 3", "result": "induced"},
      {"measurement": "aggregation", "setting": "[3]; 2 hr after addition", "result": "aggregation was observed"},
      {"measurement": "aggregation", "setting": "[3]; 12 hr after addition", "result": "more intensive aggregation"},
      {"measurement": "concentration at which aggregation of MM-RU was induced", "setting": "[3]; [10]", "result": "≥ 0.1", "unit": "µM"},
      {"measurement": "concentration at which the efficacy was significant", "setting": "[3]; [10]", "result": "0.3 to 1.0", "unit": "µM"},
      {"measurement": "apoptosis induction, Gal9 (+)", "setting": "[4]", "result": 30.5},
      {"measurement": "cells that underwent apoptosis, detectable by Annexin V staining", "setting": "[5]", "result": 69.1, "unit": "%"},
      {"measurement": "apoptosis induction", "setting": "[6]", "result": "strongly induced"},
      {"measurement": "apoptosis induction, Gal9 (+)", "setting": "[7]; MOLT4, incubation with galectin-9 at least 48 hr or more", "result": 34.5},
      {"measurement": "apoptosis induction, time and dose dependence", "setting": "[7]; PI method", "result": "time-dependent and dose-dependent"},
      {"measurement": "apoptosis induction", "setting": "[7]; rGal-9 1 μM, 24 hr, FIG. 3", "result": "induced"},
      {"measurement": "PI-stained cells, which underwent apoptosis", "setting": "[7]; rGal-9 1 μM, PI method, FIG. 1A, PBS control 14.8%", "result": 34.5, "unit": "%"},
      {"measurement": "calcium influx", "setting": "[8]; A23187 final concentration 5 ng/mL", "result": "increased calcium influx"},
      {"measurement": "time within which calcium influx increased after addition", "setting": "[8]", "result": "10 to 20", "unit": "s"},
      {"measurement": "effect on DEX-induced apoptosis", "setting": "[9]", "result": "inhibits"},
      {"measurement": "effect on anti-Fas Ab-induced apoptosis", "setting": "[9]", "result": "stimulates"}
    ]}
  ]
}
